In patent US7786257B2, “Signal-1/signal-2 bifunctional peptide inhibitors” (priority 2000, dated 2010):

Assays:
[1] = system: live APC (spleenocytes) from NOD (I-A^g7), BALB/c, A.SW, A.BY mice; assay: Flow cytometry of biotinylated peptide binding to live APC (spleenocytes) of inbred mouse strains; details: biotinylated peptide, live spleenocytes, flow cytometry
Experimental: Specifically, it was verified that the peptide binds to MHC molecules on live APC. Briefly, spleen cell density-gradient fractions (from mice), or PBL, or APC lines (from humans) were incubated in round bottom 96-well plates with increasing concentrations of individual biotinylated peptides at 37° C., 5% CO2 for 16 hours. Following binding of the BPI to the APC, Avidin-FITC was incubated with the cells on ice for 30 minutes, followed by biotinylated anti-Avidin for 1 hour, then again with Avidin-FITC. For BPI titrations, increasing concentrations (0.1-100 μM) of the biotinylated derivatives in sterile 0.5% BSA-PBS were incubated with the APC for 16 hours as above. […] Three-color analyses used Cy-Chrome or PE-conjugated antibodies to known surface markers of APC that were commercially available. Avidin-FITC and biotinylated anti-Avidin detection of the bound peptide was as previously described in Murray et al., 24 Eur. J. Immunol. 2337-2344 (1994); Murray; 19 Immunology Today 157-163; and Schountz et al., 157 The Journal of Immunology 3893-3901 (1996). Slight modifications of this method were used to test peptide inhibition (i.e., peptide affinity) and co-capping to the MHC and ICAM molecules directly on the live APC surface. […] Unlabeled peptide was used in a competition assay to derive the relative affinity of the BPI for the APC and the ability of the BPI to crosslink the MHC and ICAM molecules on the APC was examined by cocapping ICAM with an anti-MHC mAb. Here, cells were incubated with the BPI. Next, an anti-MHC mAb was added. After 30 minutes at 37° C., the cells were transferred to ice and stained with PE-labeled anti-ICAM (FIG. 7).
To obtain biotinylated BPI, the synthesized EGAD BPI was biotinylated with NHS-Biotin as described in Murray et al., 24 Eur. J. Immunol. 2337-2344 (1994). Spleen cell density-gradient fractions from normal (unimmunized) NOD, BALB/c and other MHC congenic strains were incubated in round bottom 96-well plates with increasing concentrations of individual biotinylated peptides at 37° C., 5% CO2 for 16 hours. Following binding of the BPI to the APC, Avidin-FITC was incubated with the cells on ice for 30 minutes, followed bybiotinylated anti-Avidin for 1 hour, then again with Avidin-FITC. For BPI titrations, increasing concentrations (0.1-100 μM) of the biotinylated derivatives in sterile 0.5% BSA-PBS were incubated with the APC for 16 hours as above. Three-color analyses used Cy-Chrome or PE-conjugated anti-B220 (mAb RA3-6B2 (CD45R B-cell marker), anti-MHC class II (KH74 or 10-3.62 mAb), or anti-ICAM-1 (3E2 mAb); (all purchased from PharMingen, San Diego, Calif.). Bound peptide was detected with avidin-FITC/biotinylated anti-avidin/avidin-FITC on live cells gated by forward/side scatter analysis. Controls contained all detecting reagents in absence of the biotinylated peptide; 20,000 events were analyzed for each histogram with a FACScan (Becton-Dickinson) flow cytometer.
To verify antigenic peptide binding to live APC, initial EGAD-BPI were screened for selective binding to NOD (I-A^g7) APC and assayed for simultaneous binding using monoclonal antibodies against either MHC-II or ICAM-1 by flow cytometry methods using live APC (Murray et al., 24 Eur. J. Immunol. 2337-2344 (1994); Murray; 19 Immunology Today 157-163; and Schountz et al., 157 The Journal of Immunology 3893-3901 (1996)). In this assay, increasing concentrations of the biotinylated-BPI, -CD11a(237-247) or -GAD65(208-217) peptide were incubated overnight with spleenocytes from each inbred strain. Bound peptide was detected with amplification of avidin-FITC fluorescence by the use of a biotinylated anti-avidin reagent, followed by a second round of avidin-FITC binding. Biotinylated peptide was incubated with 10^6 viable cells at a peptide concentrations of 50 μM. Bound peptide was detected with avidin-FITC/biotinylated anti-avidin-FITC. […]

NOD mice = assay: Lymphocytic infiltration of pancreatic islets (insulitis) in NOD mice, histological scoring; format: in vivo, mouse; details: NOD males; for intact / normal islets without infiltration (grade-0 islets), percentage of islets examined: GAD65 peptide in CFA, two i.v. injections of 40 nanomoles
Source text: To evaluate the disease process by immunohistology (see, e.g., FIG. 12A-D), spleen, pancreas, or other target organs, e.g., the CNS for the MDP peptide BPI, or lung for the RSV peptide BPI, were removed from euthanized mice of each group and prepared for histology by fixing in neutral buffered formalin and embedding in paraffin, or snap frozen in O.C.T. medium. For scoring inflammation, minimums of five sections from each mouse were used to assess the blocking affect of a given BPI. For characterization of standard T-cell markers on cellular infiltrates, biotinylated mAb to various cell surface antigens will be incubated individually with the Cryostat sections (2 hours), followed by avidin-alkaline phosphatase (Vector laboratories). Alternatively, cell subsets will be phenotyped by standard flow cytometry methods as described in Murray et al., 24 Eur. J. Immunol. 2337-2344 (1994); Murray; 19 Immunology Today 157-163; and Schountz et al., 157 The Journal of Immunology 3893-3901 (1996). Finally, the students t-test or ANOVA will be used to estimate the statistical significance of differences observed between groups and individual mice.
These studies sought to confirm that the BPI containing the immunodominant GAD65 TCR epitope (EGAD-BPI) was biologically active in vivo and inhibited the development of pancreatic inflammation. Groups of three normal glycemic NOD males (8 weeks old) were immunized with the GAD65 (208-217) peptide in CFA as described in Example 4. The control group received PBS, and separate experimental groups received either the EGAD-BPI, the GAD peptide alone (i.e., the T-cell receptor epitope), or the CD11a peptide alone(i.e., the second signal receptor moiety) by two intravenous injections as described in Example 4. On day 10, the pancreata were removed to 10% PBS-buffered formalin, embedded in paraffin, and five-micron serial sections were examined histologically for mononuclear cell infiltration as previously described by Yoon, et al., Control of Autoimmune Diabetes in NOD Mice by GAD Expression or Suppression in β Cells, 284 Science 1183-1187 (1999), the entirety of which is hereby incorporated by reference.

Row | Sequence | preferential binding to NOD APC compared with other strains (BALB/c, A.SW, A.BY) [1] | preferential binding to NOD APC compared with other strains (BALB/c, A.SW, A.BY) ([1]; listed as GAD 65 moiety) | intact / normal islets without infiltration (grade-0 islets), percentage of islets examined (NOD mice; day 10) [%] | mononuclear cell infiltration of islets (insulitis), in words (NOD mice; day 10, histology) | islets scored grade 2 or above (NOD mice; two i.v. injections, day 10) [%] | preferential binding to NOD APC compared with other strains (BALB/c, A.SW, A.BY) ([1]; listed as LFA-1 (CD11a 237-247) peptide) | preferential binding to NOD APC compared with other strains (BALB/c, A.SW, A.BY) ([1]; listed as LFA-1 moiety)
1 | EIAPVFVLLE (listed as Homo sapiens) [GAD65 peptide, reference compound] | did not bind preferentially to NOD APC | did not display this increased binding | 62 | showed the most insulitis | 37.5 | – | –
2 | ITDGEATDSG (listed as Homo sapiens) [CD11a peptide, Signal-2 moiety (second signal receptor moiety) of EGAD-BPI, tested alone as control] | did not bind preferentially to NOD APC | – | 66.7 | – | – | bound similarly to all strain spleenocytes | did not display this increased binding
